The values that follow come from publication PMC13494812, “Towards the Targeted Protein Degradation of PRMT1” (Chemmedchem, 2024).

A value given as a limit tells only on which side of the number the result lay.

A word on the IC50: it is the midpoint of a concentration-inhibition curve.

The target in data set [1] is T1, PRMT1 (Homo sapiens, UniProt Q99873).
T1 construct: endogenous in cells; host or cells: MCF-7
The experiment in a line: ADMA and MMA levels by Western blot in MCF-7 cells (PRMT1 / Type I PRMT inhibition). The format is cell-based. Particulars: 10 μM, 24 h; for change in monomethylation of arginine (MMA): Western blot. An excerpt: The cells were allowed to adhere overnight.
manufacturer’s instructions.
Background: In western blotting, separated proteins are transferred to a membrane and probed.

A further data set has as its system MCF-7 cell line. The experiment in a line: Cytotoxicity seen in the MCF-7 degradation experiment. The format is cell-based, human. Particulars: MCF-7 cells, 10 μM, 24 h.
In the next data set the test system is KP-3 line. The data set can be described thus: Cytotoxicity seen in the KP-3 degradation experiment. It counts as cell-based, human. Particulars: KP-3 cells, 10 μM, 24 h. The protocol:
Figure S5. VHL-recruiting PROTACs in two PDAC-derived cell lines. Western blot of PROTAC A-F in two PDAC-derived cell lines at 10 µM. HPAF-II and KP-3 cells were treated with the indicated compounds at 10 µM for 24 h and then harvested for analysis by Western blot. PROTAC E and PROTAC F were cytotoxic in the KP-3 line.
(1 picture or pasted object on this page, not shown here)

Data set [2] can be described thus: PROTAC stability in cell culture media. The format is in vitro ADME. Conditions: read-out: t1/2 in cell culture media (converted). The source says: A SEM protecting group was employed on the glutarimide ring of CRBN ligand 6. Three CRBN‐recruiting PROTACs were synthesised by the O‐alkylation of PRMT1 ligand 4 with the corresponding linker 8 j–l to give 9 j–l which underwent a subsequent O‐alkylation with SEM‐protected CRBN ligand 12. The removal of the protecting groups was then attempted using acidic conditions. The N‐Boc and THP protecting groups on the PRMT1 ligand were removed however the SEM group on the CRBN ligand was converted to an N‐hydroxymethyl functional group. This group was removed under basic conditions to afford PROTACs J–L (Scheme 3 A). It is documented that the glutarimide ring and the phthalimide group of the CRBN ligand are susceptible to hydrolysis,[50, 51] and the stability of PROTAC L in cell culture media was investigated and found to be short (t1/2=0.9 h). Changing the functional group between the CRBN ligand and linker can affect the susceptibility of the ligand to hydrolysis.[52] PROTAC M was synthesised, which comprised a similar structure as PROTAC L, but with an amino group between the linker and CRBN ligand (Scheme 3 B).

Another data set concerns the target T2, NLuc-CRBN fusion protein (Homo sapiens, UniProt Q96SW2).
T2 construct: host or cells: MCF-7
The experiment in a line: CRBN NanoBRET Target Engagement assay in live MCF-7 cells. It counts as cell-based. Particulars: 0.5 µM tracer, 2 h, read-out: IC50, half-maximal inhibition of tracer binding to NLuc-CRBN.

Data set [3] has as its target T1, PRMT1. The experiment in a line: PRMT1 degradation assay by Western blot in MCF-7 cells. Particulars: 1 and 0.1 μM, 24 h. It counts as cell-based. The source says: A sensitive and selective Western blot protocol was validated to investigate the effect of PROTAC treatment on the cellular levels of PRMT1 in the MCF‐7 cell line (Figure S4, ESI†). Derived from a metastatic breast adenocarcinoma, the MCF‐7 cell line has the hormone receptor status that characterises the most frequently diagnosed subtype of breast cancer: ER‐positive, PR‐positive, HER2‐negative.[43, 44] This breast cancer subtype, and consequently the MCF‐7 cell line, are a suitable model system to predict the clinical efficacy of PRMT1 PROTACs; PRMT1 upregulation correlates with a reduction in relapse‐free survival for patients with this breast cancer subtype[6, 45] and anti‐proliferative effects have been observed in the MCF‐7 cell line following pan‐Type I PRMT inhibition.[17, 20]
Figure 3 PRMT1 and PRMT6 degradation assays with VHL‐recruiting PROTACs. […] PROTACs E–F were cytotoxic and not analysed. […]
(§1) Western Blot Cells were counted using the Vi-CELL XR cell viability analyser, as per manufactures instructions, and the desired number of cells seeded in full media in individual 10 cm plates (Corning, #430167). […]
(§2) The pellet was resuspended in RIPA buffer containing protease and phosphatase inhibitor and incubated at 4 °C for 10 minutes with rotation. […] The supernatant was transferred and the protein concentration quantified by the Direct Detect Spectrometer as per manufacturer’s instructions. […]

Another data set deals with T3, PRMT6 (Homo sapiens, UniProt Q96LA8).
T3 construct: endogenous in cells; host or cells: MCF-7
T3 sequence (Q96LA8 whole entry): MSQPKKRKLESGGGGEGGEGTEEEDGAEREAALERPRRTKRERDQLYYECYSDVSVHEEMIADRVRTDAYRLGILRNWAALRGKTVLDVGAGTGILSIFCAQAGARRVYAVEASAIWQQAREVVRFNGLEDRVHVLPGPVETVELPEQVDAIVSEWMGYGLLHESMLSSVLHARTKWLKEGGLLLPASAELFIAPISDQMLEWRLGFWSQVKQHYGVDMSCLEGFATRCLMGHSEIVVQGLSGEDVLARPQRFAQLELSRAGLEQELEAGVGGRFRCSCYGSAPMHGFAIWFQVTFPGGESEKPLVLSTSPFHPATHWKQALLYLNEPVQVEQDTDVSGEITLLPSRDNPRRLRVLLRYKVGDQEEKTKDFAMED
The experiment in a line: PRMT6 degradation assay by Western blot in MCF-7 cells. The format is cell-based. Particulars: 1 and 0.1 μM, 24 h. The protocol:
At 10 μM in the MCF‐7 cell line, PRMT1 degradation was not observed with any of the synthesised PROTACs (Figure 3A). PROTAC E and PROTAC F were cytotoxic and not analysed. […]. PRMT8 is expressed primarily in the brain and thus not investigated.[46]
Figure 3 PRMT1 and PRMT6 degradation assays with VHL‐recruiting PROTACs. A) PROTACs A–I at 10 μM. PROTACs E–F were cytotoxic and not analysed. MCF‐7 cells were treated with the indicated compound for 24 h and then harvested for analysis by Western blot. B) Same as A but PROTACs tested at 1 and 0.1 μM. Image representative of two independent experiments. Uncropped blots are shown in ESI†.
Figure 5 PRMT1 and PRMT6 degradation assays with CRBN‐recruiting PROTACs. A) PROTACs J–O at 10 μM. MCF‐7 cells were treated with the indicated compound for 24 h and then harvested for analysis by Western blot. B) Same as A but PROTAC N tested at 1 and 0.1 μM. […]
as §1, §2

A further data set addresses T4, CRBN (Homo sapiens, UniProt Q96SW2).
T4 construct: host or cells: MCF-7
The experiment in a line: CRBN binding of N-alkylated molecule 7 (Figure S6). An excerpt:
To synthesise PROTACs that recruit the CRBN E3‐ligase, PRMT1 ligand 4 underwent a Mitsunobu reaction to produce 5 which was then used for the alkylation of CRBN ligand 6.

T1 sequence (Q99873 whole entry): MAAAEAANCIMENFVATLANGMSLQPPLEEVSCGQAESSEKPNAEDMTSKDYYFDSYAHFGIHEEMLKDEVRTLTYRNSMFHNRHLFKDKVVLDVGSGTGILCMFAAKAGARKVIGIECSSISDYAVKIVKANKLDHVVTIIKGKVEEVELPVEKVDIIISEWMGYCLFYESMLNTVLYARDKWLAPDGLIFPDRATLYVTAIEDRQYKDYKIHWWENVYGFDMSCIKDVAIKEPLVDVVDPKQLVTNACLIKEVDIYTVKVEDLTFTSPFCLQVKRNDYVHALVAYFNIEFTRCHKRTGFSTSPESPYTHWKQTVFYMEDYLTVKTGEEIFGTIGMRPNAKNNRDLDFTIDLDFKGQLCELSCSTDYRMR
T2 sequence (Q16531 whole entry, the tested form may be a part): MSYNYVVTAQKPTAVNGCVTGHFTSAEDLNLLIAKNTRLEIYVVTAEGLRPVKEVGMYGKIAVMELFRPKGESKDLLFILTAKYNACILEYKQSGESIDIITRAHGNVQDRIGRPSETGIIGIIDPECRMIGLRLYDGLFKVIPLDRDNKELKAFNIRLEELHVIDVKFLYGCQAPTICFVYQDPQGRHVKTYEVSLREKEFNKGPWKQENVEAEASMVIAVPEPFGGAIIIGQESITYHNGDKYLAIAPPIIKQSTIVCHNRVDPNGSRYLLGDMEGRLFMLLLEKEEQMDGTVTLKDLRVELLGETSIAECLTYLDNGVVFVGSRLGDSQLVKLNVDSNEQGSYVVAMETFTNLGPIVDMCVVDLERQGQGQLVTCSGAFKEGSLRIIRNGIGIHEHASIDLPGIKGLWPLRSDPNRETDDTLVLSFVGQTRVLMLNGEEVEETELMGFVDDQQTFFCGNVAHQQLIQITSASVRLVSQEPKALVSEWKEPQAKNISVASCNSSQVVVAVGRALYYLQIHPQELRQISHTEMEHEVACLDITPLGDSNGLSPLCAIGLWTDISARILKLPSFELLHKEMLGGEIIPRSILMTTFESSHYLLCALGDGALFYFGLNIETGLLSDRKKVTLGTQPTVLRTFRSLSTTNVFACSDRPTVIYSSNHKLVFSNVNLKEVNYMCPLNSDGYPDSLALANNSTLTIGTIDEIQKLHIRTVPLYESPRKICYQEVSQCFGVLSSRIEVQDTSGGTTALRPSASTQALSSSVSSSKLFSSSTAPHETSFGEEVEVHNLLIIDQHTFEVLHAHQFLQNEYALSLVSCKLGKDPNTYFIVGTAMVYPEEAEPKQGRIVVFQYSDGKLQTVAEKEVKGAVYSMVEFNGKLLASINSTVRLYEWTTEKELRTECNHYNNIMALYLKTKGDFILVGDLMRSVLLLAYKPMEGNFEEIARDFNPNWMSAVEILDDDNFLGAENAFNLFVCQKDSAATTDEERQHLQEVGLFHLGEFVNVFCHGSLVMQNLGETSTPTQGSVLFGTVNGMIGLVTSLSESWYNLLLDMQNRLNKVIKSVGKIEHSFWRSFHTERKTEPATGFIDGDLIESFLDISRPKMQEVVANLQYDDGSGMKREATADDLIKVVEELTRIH
T2 sequence (Q96SW2 whole entry, the tested form may be a part): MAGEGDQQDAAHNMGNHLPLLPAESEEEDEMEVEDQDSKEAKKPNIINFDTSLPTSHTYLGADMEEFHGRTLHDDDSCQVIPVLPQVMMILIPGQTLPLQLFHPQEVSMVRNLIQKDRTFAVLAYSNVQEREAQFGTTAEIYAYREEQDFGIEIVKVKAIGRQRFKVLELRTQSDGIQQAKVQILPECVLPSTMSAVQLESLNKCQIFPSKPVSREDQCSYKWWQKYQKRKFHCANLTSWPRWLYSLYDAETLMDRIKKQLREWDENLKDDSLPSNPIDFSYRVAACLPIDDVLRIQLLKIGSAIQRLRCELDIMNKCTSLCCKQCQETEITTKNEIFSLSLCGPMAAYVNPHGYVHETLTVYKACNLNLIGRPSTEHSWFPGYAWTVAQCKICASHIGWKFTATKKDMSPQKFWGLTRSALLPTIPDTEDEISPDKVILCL
T4 sequence (Q96SW2 whole entry): as the sequence (Q96SW2 whole entry, the tested form may be a part) above
T4 sequence (Q16531 whole entry, further chain): as the sequence (Q16531 whole entry, the tested form may be a part) above

For the compound `CNCCN(C)Cc1c[nH]nc1-c1ccc(OCCCCCCCC(=O)N[C@H](C(=O)N2C[C@H](O)C[C@H]2C(=O)NCc2ccc(-c3scnc3C)cc2)C(C)(C)C)cc1` [PROTAC C], the “change in monomethylation of arginine (MMA)” value on PRMT1 [1] was “significant increase”.
The same measure, in the same setting: under `CNCCN(C)Cc1c[nH]nc1-c1ccc(OCCCCCCCCCC(=O)N[C@H](C(=O)N2C[C@H](O)C[C@H]2C(=O)NCc2ccc(-c3scnc3C)cc2)C(C)(C)C)cc1` [PROTAC D] stands “significant increase”.
Turning to `CNCCN(C)Cc1c[nH]nc1-c1ccc(OCCCCCCCCCCCC(=O)N[C@H](C(=O)N2C[C@H](O)C[C@H]2C(=O)NCc2ccc(-c3scnc3C)cc2)C(C)(C)C)cc1` [PROTAC E], the cytotoxicity entry in the data set on MCF-7 cell line and in the data set with KP-3 line was “cytotoxic” in each case.
Regarding `CNCCN(C)Cc1c[nH]nc1-c1ccc(OCCCCCCCCCCCCCCCC(=O)N[C@H](C(=O)N2C[C@H](O)C[C@H]2C(=O)NCc2ccc(-c3scnc3C)cc2)C(C)(C)C)cc1` [PROTAC F], the cytotoxicity entry with MCF-7 cell line and in the data set on KP-3 line was “cytotoxic” throughout.
Turning to `CNCCN(C)Cc1c[nH]nc1-c1ccc(OCCOCCOCCOCCOCCOCCOc2cccc3c2C(=O)N(C2CCC(=O)NC2=O)C3=O)cc1` (stereo not drawn) [PROTAC L], in data set [2], the half-life is 0.9 h. Also, the IC50 on NLuc-CRBN fusion protein is greater than 10000 nM.
In the case of `CNCCN(C)Cc1c[nH]nc1-c1ccc(OCCOCCOCCOCCOCCOCCNc2cccc3c2C(=O)N(C2CCC(=O)NC2=O)C3=O)cc1` (stereo not drawn) [PROTAC M], the half-life in data set [2] was 2.1 h. Besides, the IC50 at NLuc-CRBN fusion protein came to 1900 nM.
With `CNCCN(C)Cc1c[nH]nc1-c1ccc(OCCCCCCNc2cccc3c2C(=O)N(C2CCC(=O)NC2=O)C3=O)cc1` (stereo not drawn) [PROTAC N], the IC50 on NLuc-CRBN fusion protein worked out at 200 nM. At PRMT1 [3], the PRMT1 degradation result was “neither PRMT1 nor PRMT6 degradation was observed”. The PRMT6 degradation entry at PRMT6 is on record as “neither PRMT1 nor PRMT6 degradation was observed”. In addition, on PRMT1 [1] (ADMA/MMA Western blot), the “inhibition of PRMT1 activity” value was “inhibited PRMT1 activity”.
Regarding `CNCCN(C)Cc1c[nH]nc1-c1ccc(OCCOCCN2C(=O)CCC(N3C(=O)c4cccc(O)c4C3=O)C2=O)cc1` (stereo not drawn) [compound 7], the CRBN binding entry at CRBN is on record as “does not bind CRBN”.
